In patent US20260083851A1 (AVILAR THERAPEUTICS, INC., priority 2022, published 2026) one finds Kd data, which are given here for 22 molecules.

Where only a bound is given, the exact number is not on record here.

This experiment addresses T1, ASGP receptor (biotinylated ASGPR) (Homo sapiens, UniProt P07306).
T1 construct: biotin (biotinylated)
T1 sequence (P07306 1-291): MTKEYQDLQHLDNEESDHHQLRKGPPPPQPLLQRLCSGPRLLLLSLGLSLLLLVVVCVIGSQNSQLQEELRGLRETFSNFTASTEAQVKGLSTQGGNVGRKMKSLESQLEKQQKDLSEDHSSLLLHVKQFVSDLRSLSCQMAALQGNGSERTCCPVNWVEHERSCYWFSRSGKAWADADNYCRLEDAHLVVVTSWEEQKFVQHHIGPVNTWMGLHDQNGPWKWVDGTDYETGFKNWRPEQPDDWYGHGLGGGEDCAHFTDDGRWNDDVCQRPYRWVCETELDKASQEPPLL
The class given is binding. Conditions: SPR, Biacore 8K, 25° C.; Table 1A; read-out: ASGPR KD.

Consider `O=C(O)CCC(=O)NC1CC2(C1)CC(NC(=O)C[C@H]1OC[C@H](Nc3cncc(C(F)(F)F)n3)[C@@H](O)[C@H]1O)C2` (stereo partly shown) [A93], for which the Kd was below 10 µM.

Consider `OC[C@H]1O[C@@H](c2ccccc2)[C@H](Nc2nccc(C(F)(F)F)n2)[C@@H](O)[C@H]1O` [A94, (2R,3R,4R,5R,6S)-2-(hydroxymethyl)-6-phenyl-5-((4-(trifluoromethyl)pyrimidin-2-yl)amino)tetrahydro-2H-pyran-3,4-diol], for which the Kd was below 10 µM.

In the case of `CC(=O)N[C@@H]1[C@@H](O)[C@@H](O)[C@@H](CO)O[C@@H]1c1ccccc1` [A95, N-((2R,3R,4R,5R,6R)-4,5-dihydroxy-6-(hydroxymethyl)-2-phenyltetrahydro-2H-pyran-3-yl)acetamide], the Kd is below 10 µM. Turning to `OC[C@H]1O[C@H](c2ccccc2)[C@H](Nc2nccc(C(F)(F)F)n2)[C@@H](O)[C@H]1O` [A96, (2R,3R,4R,5R,6R)-2-(hydroxymethyl)-6-phenyl-5-((4-(trifluoromethyl)pyrimidin-2-yl)amino)tetrahydro-2H-pyran-3,4-diol], the Kd is below 10 µM. `O=C(O)c1ccc(N2CCC(CN3CCN(C[C@H]4OC[C@H](Nc5ccnc(C(F)(F)F)n5)[C@@H](O)[C@H]4O)CC3)CC2)cc1` [A97, 4-(4-((4-(((2R,3R,4R,5S)-3,4-dihydroxy-5-((2-(trifluoromethyl)pyrimidin-4-yl)amino)tetrahydro-2H-pyran-2-yl)methyl)piperazin-1-yl)methyl)piperidin-1-yl)benzoic acid]: the Kd is below 10 µM. On to `NC[C@H]1OC[C@H](Nc2cccc(C(F)(F)F)n2)[C@@H](O)[C@H]1O` [A98, (2R,3R,4R,5S)-2-(aminomethyl)-5-((6-(trifluoromethyl)pyridin-2-yl)amino) tetrahydro-2H-pyran-3,4-diol], for which the Kd was below 10 µM.

As to `NC[C@H]1OC[C@H](Nc2nc(C(F)(F)F)ccc2F)[C@@H](O)[C@H]1O` [A99, (2R,3R,4R,5S)-2-(aminomethyl)-5-((3-fluoro-6-(trifluoromethyl)pyridin-2-yl)amino)tetrahydro-2H-pyran-3,4-diol], the Kd is below 10 µM. Regarding `O=C(O)c1ccc(N2CCC(CN3CCN(C[C@H]4OC[C@H](Nc5cccc(C(F)(F)F)n5)[C@@H](O)[C@H]4O)CC3)CC2)cc1` [A100, 4-(4-((4-(((2R,3R,4R,5S)-3,4-dihydroxy-5-((6-(trifluoromethyl)pyridin-2-yl)amino)tetrahydro-2H-pyran-2-yl)methyl)piperazin-1-yl)methyl)piperidin-1-yl)benzoic acid], the Kd was below 10 µM. As for `O=C(O)c1ccc(N2CCC(CN3CCN(C[C@H]4OC[C@H](Nc5nc(C(F)(F)F)ccc5F)[C@@H](O)[C@H]4O)CC3)CC2)cc1` [A101, 4-(4-((4-(((2R,3R,4R,5S)-5-((3-fluoro-6-(trifluoromethyl)pyridin-2-yl)amino)-3,4-dihydroxytetrahydro-2H-pyran-2-yl)methyl)piperazin-1-yl)methyl)piperidin-1-yl)benzoic acid], the Kd was below 10 µM.

Take `CC(=O)N1C[C@H](Nc2cncc(C(F)(F)F)n2)[C@@H](O)[C@@H](O)C1` [A102, 1-((3S,4R,5S)-3,4-dihydroxy-5-((6-(trifluoromethyl)pyrazin-2-yl)amino)piperidin-1-yl)ethan-1-one]: the Kd is below 10 µM.

On to `O=C(O)COCCOCC(=O)NC[C@H]1OC[C@H](Nc2cccc(C(F)(F)F)n2)[C@@H](O)[C@H]1O` [A103, 2-(2-(2-((((2R,3R,4R,5S)-3,4-dihydroxy-5-((6-(trifluoromethyl)pyridin-2-yl)amino)tetrahydro-2H-pyran-2-yl)methyl)amino)-2-oxoethoxy)ethoxy)acetic acid], for which the Kd is below 10 µM. As to `OC[C@H]1O[C@H](Cc2ccccc2)[C@@H](Nc2nccc(C(F)(F)F)n2)[C@@H](O)[C@H]1O` [A104], the Kd was 10 to 100 µM. For the molecule `OC[C@H]1O[C@H](c2ccccc2)[C@H](Nc2cncc(C(F)(F)F)n2)[C@@H](O)[C@H]1O` [A105, (2R,3R,4R,5R,6R)-2-(hydroxymethyl)-6-phenyl-5-((6-(trifluoromethyl)pyrazin-2-yl)amino)tetrahydro-2H-pyran-3,4-diol], the Kd is below 10 µM. Take `O=C(O)COCCOCC(=O)NC[C@H]1OC[C@H](Nc2nccc(C(F)(F)F)n2)[C@@H](O)[C@H]1O` [A106, 2-(2-(2-((((2R,3R,4R,5S)-3,4-dihydroxy-5-((4-(trifluoromethyl)pyrimidin-2-yl)amino)tetrahydro-2H-pyran-2-yl)methyl)amino)-2-oxoethoxy)ethoxy)acetic acid]: the Kd was below 10 µM. In the case of `O=C(O)COCCOCC(=O)NC[C@H]1OC[C@H](Nc2ccnc(C(F)(F)F)c2)[C@@H](O)[C@H]1O` [A107, 2-(2-(2-((((2R,3R,4R,5S)-3,4-dihydroxy-5-((2-(trifluoromethyl)pyridin-4-yl)amino)tetrahydro-2H-pyran-2-yl)methyl)amino)-2-oxoethoxy)ethoxy)acetic acid] it was below 10 µM; in that of `OC[C@H]1OC[C@H](Nc2ccccc2)[C@@H](O)[C@H]1O` [A108, (2R,3R,4R,5S)-2-(hydroxymethyl)-5-(phenylamino)tetrahydro-2H-pyran-3,4-diol], below 10 µM; in that of `OC[C@H]1O[C@@H](c2ccccc2)[C@H](Nc2cncc(C(F)(F)F)n2)[C@@H](O)[C@H]1O` [A109, (2R,3R,4R,5R,6S)-2-(hydroxymethyl)-6-phenyl-5-((6-(trifluoromethyl)pyrazin-2-yl)amino)tetrahydro-2H-pyran-3,4-diol], 10 to 100 µM. For `O=C(O)COCCOCC(=O)NC[C@H]1OC[C@H](Nc2nc(C(F)(F)F)ccc2F)[C@@H](O)[C@H]1O` [A110, 2-(2-(2-((((2R,3R,4R,5S)-5-((3-fluoro-6-(trifluoromethyl)pyridin-2-yl)amino) 3,4-dihydroxytetrahydro-2H-pyran-2-yl)methyl)amino)-2-oxoethoxy)ethoxy)acetic acid], the Kd is below 10 µM. The value for `O=C(O)c1ccc(S(=O)(=O)NC[C@H]2OC[C@H](Nc3cncc(C(F)(F)F)n3)[C@@H](O)[C@H]2O)cc1` [A111, 4-(N-(((2R,3R,4R,5S)-3,4-dihydroxy-5-((6-(trifluoromethyl)pyrazin-2-yl)amino)tetrahydro-2H-pyran-2-yl)methyl)sulfamoyl)benzoic acid] was below 10 µM; that for `O=S(=O)(NC[C@H]1OC[C@H](Nc2cncc(C(F)(F)F)n2)[C@@H](O)[C@H]1O)c1ccccc1` [A112, N-(((2R,3R,4R,5S)-3,4-dihydroxy-5-((6-(trifluoromethyl)pyrazin-2-yl)amino)tetrahydro-2H-pyran-2-yl)methyl)benzenesulfonamide] was below 10 µM; that for `O=C(NC[C@H]1OC[C@H](Nc2cncc(C(F)(F)F)n2)[C@@H](O)[C@H]1O)Nc1ccc(C(=O)O)cc1` [A113, 4-(3-(((2R,3R,4R,5S)-3,4-dihydroxy-5-((6-(trifluoromethyl)pyrazin-2-yl)amino)tetrahydro-2H-pyran-2-yl)methyl)ureido)benzoic acid] was below 10 µM.

In the case of `O=C(NC[C@H]1OC[C@H](Nc2cncc(C(F)(F)F)n2)[C@@H](O)[C@H]1O)Nc1ccccc1` [A114, 1-(((2R,3R,4R,5S)-3,4-dihydroxy-5-((6-(trifluoromethyl)pyrazin-2-yl)amino)tetrahydro-2H-pyran-2-yl)methyl)-3-phenylurea], the Kd is below 10 µM.
